According to patent US10292383B2, “Use of surface-reacted calcium carbonate as carrier for agrochemical compounds” (Omya International AG, priority 2015, dated 2019):

System: Plasmopara viticola
Test: Field application trial against downy mildew on vineyard (PESSEV / PESINC assessment on leaves and bunches)
Assay type: in vivo
Conditions: between T2 (0.021 kg DM/ha) and T3 (0.21 kg DM/ha), both on leaves and bunches
Method: The application trials were carried out in Piedmont, Italy. In these trials, three different dosage rates of three of the above-mentioned samples (SRCC1-0.5 DM, SRCC1-5 DM, SRCC1-25 DM) were applied against downy mildew on vineyard and the efficacy and selectivity thereof was evaluated. In addition, the performance in comparison to commercially available fungicides was also evaluated. […]
The efficacy against Plasmopara viticola and the selectivity on the crop of the test products SRCC1-0.5 DM and SRCC1-5 DM both applied in mixture with tribasic copper sulfate (Cupravit Bio Evoluion WG), respectively, in treatments T2 and T3, were evaluated. […]
The efficacy of SRCC1-25 DM was also evaluated in treatment T4 and compared with the reference F50 sprayed in treatment T6. […]
In this trial according to the present invention, the disease pressure was assessed through two standard parameters: • (i) PESSEV=the pest severity (i.e. the intensity) determined as infected area per bunch or leaf in %; and • (ii) PESINC=the pest incidence (i.e. the frequency) determined in % of bunches and leaves infected. […]

COc1ccc(C(=CC(=O)N2CCOCC2)c2ccc(Cl)cc2)cc1OC [dimethomorph]
dosage rate effect of active ingredient: significant dosage rate effect
